Key:
[1] = potential anxiolytic activity: mouse exploratory activity in a two-compartment light/dark box; type: in vivo; details: mice, Student's unpaired t-test vs vehicle, *P<0.05, **P<0.01, ***P<0.001
Method: The compounds of the invention are tested for potential anxiolytic activity by a test procedure measuring mouse exploratory activity in a two-compartment light/dark box based upon the procedure of B Costall et al, Neuropharmacology, 1987, 26, 195-200 and J N Crawley et al, Pharmac. Biochem. Behav., 1980, 13, 167-170. The test involves observing groups of mice placed in an open topped box, one third of which is painted black and illuminated under a dim red light and partitioned from the remainder of the box which is painted white and brightly illuminated. Access between the two sections is via an opening in the centre of the partition. The groups of mice are treated with vehicle or test compound and various behavioural parameters of the animals are measured including the number of exploratory rearings made by the mice in each section and the number of times the mice cross lines marked on the floor of each section. For each treatment group the mean number of line crossings and rears in each section of the box are calculated. Differences between drug-treated groups and vehicle-treated controls are compared using Student's unpaired t-test. […] Test compounds are considered to be active if they induce a similar set of changes and, in particular, if they produce a significant (p<0.05) increase in rearing activity in the light section of the box.

5-HT3 receptors = biological target: T1, 5-HT3 receptors (Oryctolagus cuniculus, UniProt A0A5F9C9J3); experiment: 5-HT3 antagonistic activity in the isolated right atrium of the rabbit heart; type: cell-based; details: 10^-5 M 5-HT, read-out: -log IC50 (chronotropic response to 10^-5 M 5-HT) (converted)
T1 construct: isolated right atrium of the rabbit heart; from tissue; host or cells: rabbit heart, isolated right atrium (sympathetic nerve terminals)
T1 sequence (A0A5F9C9J3 1-494): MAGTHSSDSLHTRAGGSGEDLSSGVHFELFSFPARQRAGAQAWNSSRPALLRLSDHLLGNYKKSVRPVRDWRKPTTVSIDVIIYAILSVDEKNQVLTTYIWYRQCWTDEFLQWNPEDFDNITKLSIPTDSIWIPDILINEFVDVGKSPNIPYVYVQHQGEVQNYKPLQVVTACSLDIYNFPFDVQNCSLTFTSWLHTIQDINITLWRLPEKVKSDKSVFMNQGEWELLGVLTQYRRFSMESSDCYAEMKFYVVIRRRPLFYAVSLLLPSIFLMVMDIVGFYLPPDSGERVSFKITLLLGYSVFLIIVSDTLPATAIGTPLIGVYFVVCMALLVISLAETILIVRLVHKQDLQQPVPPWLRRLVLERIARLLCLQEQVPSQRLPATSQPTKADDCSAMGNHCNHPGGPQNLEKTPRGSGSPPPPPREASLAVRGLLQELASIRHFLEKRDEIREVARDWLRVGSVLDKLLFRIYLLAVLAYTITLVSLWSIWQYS
Method: In particular they antagonise specific 5-hydroxytryptamine (5-HT) receptors in warm blooded animals. […] 5-HT3 -antagonists are also termed "antagonists of "neuronal" 5-hydroxytryptamine receptors" and "serotonin (5-hydroxytryptamine) M-receptor antagonists". Such compounds have been described as being useful inter alia in the treatment of migraine, emesis, anxiety, gastrointestinal disorders and as anti-psychotics.
The compounds of the invention are tested for 5-HT3 antagonistic activity in the isolated right atrium of the rabbit heart based upon the method of Fozard J. R., Naunyn-Schmiedeberg's Arch. Pharmacol., 1984, 326, 36-44. This procedure relies upon the ability of 5-HT to stimulate 5-HT3 receptors present on sympathetic nerve terminals in the heart, causing release of noradrenaline which evokes an increase in the spontaneous rate of beating. The antagonist potency is expressed as -log IC50 (where IC50 is the chronotropic response to 10^-5 M 5-HT by 50%)

[2] = 2.0 mg/kg s.c., standard anxiolytic

| SMILES | % Change Relative to Controls: Line Crossings ([1]; 0.1 mg/kg s.c.) | % Change Relative to Controls: Rears ([1]; 0.1 mg/kg s.c.) | IC50 (5-HT3 receptors) | % Change Relative to Controls: Line Crossings ([1]; 1.0 mg/kg s.c.) | % Change Relative to Controls: Rears ([1]; 1.0 mg/kg s.c.) | % Change Relative to Controls: Line Crossings [1, 2] | % Change Relative to Controls: Rears [1, 2] |
| --- | --- | --- | --- | --- | --- | --- | --- |
| O=C(Nc1cc(Cl)cc(Cl)c1)N[C@H]1CN2CCC1CC2 [Example 13, (R)-(+)-N-(1-Azabicyclo[2.2.2]octan-3-yl)-N'-(3,5-dichlorophenyl)urea] | +69% | +90% | – | – | – | – | – |
| COc1ccccc1C(=O)NC(=O)NC1CN2CCC1CC2 (stereo not shown) [Example 5, N-[[[1-Azabicyclo[2.2.2]octan-3-yl]amino]carbonyl]-2-methoxybenzamide] | +20% | +73% | 2.14 nM | – | – | – | – |
| O=C(Nc1cc(Cl)cc(Cl)c1)NC1CN2CCC1CC2 (stereo not shown) [Example 1] | +40% | +85% | 5.01 nM | – | – | – | – |
| O=C(Nc1cc(Cl)cc(Cl)c1)N[C@@H]1CN2CCC1CC2 [Example 12, (S)-(-)-N-(1-Azabicyclo[2.2.2]octan-3-yl)-N'-(3,5-dichlorophenyl)urea] | – | – | 0.501 nM | +42% | +75% | – | – |
| CNC1=Nc2ccc(Cl)cc2C(c2ccccc2)=[N+]([O-])C1 [Chlordiazepoxide, reference compound] | – | – | – | – | – | +42% | +77% |

Source: US4983600A, “Heterocyclic compounds useful as 5-HT3 antagonists” (John Wyeth & Brother Limited, priority 1987, dated 1991)
